Columns and labels:
GPR6 = molecular target: T1, GPR6 (Homo sapiens, UniProt P46095); test: GPR6 antagonist functional cAMP assay (LANCE Ultra cAMP TR-FRET, CHO cells stably expressing GPR6); assay type: cell-based
T1 construct: expressed in transfected cells; host or cells: CHO cells
Procedure, shortened: (§1)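 Cells in Krebs-Ringer buffer with 0.1% BSA and 150 μM Ro 20-1724 PDE inhibitor were exposed to compounds for 45 min at 37 °C (0.1% DMSO). cAMP was read by TR-FRET at 665 nm; IC50s came from 4-parameter fits normalized to DMSO and reference compound.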

GPR3 = molecular target: T2, GPR3 (Homo sapiens, UniProt P46089); test: GPR3 antagonist functional cAMP assay (LANCE Ultra cAMP TR-FRET, CHO cells stably expressing GPR3); assay type: cell-based
T2 construct: expressed in transfected cells; host or cells: CHO cells
T2 sequence (P46089 whole entry, species assumed): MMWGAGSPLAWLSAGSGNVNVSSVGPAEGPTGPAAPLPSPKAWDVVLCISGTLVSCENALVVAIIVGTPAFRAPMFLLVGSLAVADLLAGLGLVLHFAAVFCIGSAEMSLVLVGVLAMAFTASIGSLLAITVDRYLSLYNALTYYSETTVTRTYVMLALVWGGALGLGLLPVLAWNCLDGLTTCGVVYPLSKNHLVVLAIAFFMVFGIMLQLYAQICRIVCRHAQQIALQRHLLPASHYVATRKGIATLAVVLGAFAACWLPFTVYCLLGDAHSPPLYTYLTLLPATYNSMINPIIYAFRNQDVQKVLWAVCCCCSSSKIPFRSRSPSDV
Procedure, shortened: as §1

[1] = CHO cells stably expressing GPR6, cAMP assay (Example 24)
[2] = CHO cells stably expressing GPR3, cAMP assay (Example 24)
[3] = CHO cells stably expressing GPR6, cAMP assay
[4] = CHO cells stably expressing GPR3, cAMP assay
[5] = procedure as described in Example 24

T1 sequence (P46095 whole entry): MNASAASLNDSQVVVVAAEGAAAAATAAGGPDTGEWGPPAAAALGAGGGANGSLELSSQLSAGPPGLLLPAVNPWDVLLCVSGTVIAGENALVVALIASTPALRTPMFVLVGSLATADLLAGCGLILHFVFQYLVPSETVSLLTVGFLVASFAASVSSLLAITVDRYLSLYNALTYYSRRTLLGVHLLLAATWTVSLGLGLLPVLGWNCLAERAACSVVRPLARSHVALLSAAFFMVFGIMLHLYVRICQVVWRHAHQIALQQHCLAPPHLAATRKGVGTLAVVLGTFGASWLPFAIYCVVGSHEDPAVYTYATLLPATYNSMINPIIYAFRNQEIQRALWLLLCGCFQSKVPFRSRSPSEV

IC50 (GPR6; procedure of Example 24)	IC50 (GPR3; procedure of Example 24)	IC50 (GPR6; [1])	IC50 (GPR3; [2])	Structure (SMILES)	other results
100 to 1000 nM	100 to 1000 nM	–	–	CC(C)(O)[C@@](C)(O)c1cc2nc(N3CCN(Cc4ccccc4F)CC3)c(-c3cnn(C(F)F)c3)nc2cn1 (single isomer, unassigned) [Compound 670]	–
–	–	1000 to 30000 nM	1000 to 30000 nM	CC(=O)N1CCc2nc(N3CCC(Oc4ccc(F)cc4F)CC3)c(-c3cccc(C(=O)N(C)C)n3)nc2C1 [Compound 131, 6-(6-acetyl-2-(4-(2,4-difluorophenoxy)piperidin-1-yl)-5,6,7,8-tetrahydropyrido[3,4-b]pyrazin-3-yl)-N,N-dimethylpicolinamide]	–
1000 to 30000 nM	1000 to 30000 nM	–	–	CCn1cc(-c2nc3cnc(NC(C)=O)cc3nc2N2CCC(Oc3ccc(F)cc3F)CC2)cn1 [Compound 367, N-{2-[4-(2,4-difluorophenoxy)piperidin-1-yl]-3-(1-ethyl-1H-pyrazol-4-yl)pyrido[3,4-b]pyrazin-7-yl}acetamide]	–
–	–	–	–	CCn1cc(-c2nc3c(nc2N2CCC(Oc4ccc(F)cc4F)CC2)CCN(C(=O)C(O)C(C)(C)O)C3)cn1 (centres unmarked) [Compound 521, 1-{2-[4-(2,4-difluorophenoxy)-1-piperidyl]-3-(1-ethyl-4-pyrazolyl)-5,6,7,8-tetrahydro-1,4,6-triaza-6-naphthyl}-2,3-dihydroxy-3-methyl-1-butanone]	IC50 (GPR6; [3]): 100 to 1000 nM; IC50 (GPR3; [4]): 1000 to 30000 nM
–	–	100 to 1000 nM	1000 to 30000 nM	CC(=O)N1CCc2nc(N3CCC(Oc4cc(Cl)c(F)cc4F)CC3)c(-c3cnn(C)c3)nc2C1 [Compound 458, 1-{2-[4-(5-chloro-2,4-difluorophenoxy)piperidin-1-yl]-3-(1-methyl-1H-pyrazol-4-yl)-5H,6H,7H,8H-pyrido[3,4-b]pyrazin-6-yl}ethan-1-one]	–
–	–	1000 to 30000 nM	1000 to 30000 nM	CCn1cc(-c2nc3cnc(N)cc3nc2N2CCC(Oc3cc(Cl)ccc3Cl)CC2)cn1 [Compound 440, 2-[4-(2,5-dichlorophenoxy)piperidin-1-yl]-3-(1-ethyl-1H-pyrazol-4-yl)pyrido[3,4-b]pyrazin-7-amine]	–
1000 to 30000 nM	100 to 1000 nM	–	–	CC(=O)N1CCc2nc(N3CCC(Oc4cc(F)ccc4F)C3)c(-c3cnn(C)c3)nc2C1 (centres unmarked) [Compound 342, 1-{2-[3-(2,5-difluorophenoxy)pyrrolidin-1-yl]-3-(1-methyl-1H-pyrazol-4-yl)-5H,6H,7H,8H-pyrido[3,4-b]pyrazin-6-yl}ethan-1-one]	–
100 to 1000 nM	1000 to 30000 nM	–	–	Cn1cc(-c2nc3cc(C(C)(O)CO)ncc3nc2N2CCC(Oc3ccc(F)cc3F)CC2)cn1 (single isomer, unassigned) [Compound 692]	–
–	–	–	–	CCn1cc(-c2nc3cnc([C@H](O)C(C)(C)O)cc3nc2N2CCC(Oc3ccc(F)cc3F)CC2)cn1 (single isomer, unassigned) [Compound 571]	IC50 (GPR6; [3]): < 100 nM; IC50 (GPR3; [4]): 1000 to 30000 nM
–	–	1000 to 30000 nM	≥ 30000 nM	OCC1CN(c2nc3ccncc3nc2-c2cn[nH]c2)CCN1Cc1ccc(F)cc1F (single isomer, unassigned) [Compound 93, (4-(3-(1H-pyrazol-4-yl)pyrido[3,4-b]pyrazin-2-yl)-1-(2,4-difluorobenzyl)piperazin-2-yl)methanol]	–
–	–	100 to 1000 nM	1000 to 30000 nM	COc1ncc(-c2nc3c(nc2N2CCC(Oc4ccc(F)cc4F)CC2)CCN(C(C)=O)C3)nc1OC [Compound 215, 1-{2-[4-(2,4-difluorophenoxy)piperidin-1-yl]-3-(5,6-dimethoxypyrazin-2-yl)-5H,6H,7H,8H-pyrido[3,4-b]pyrazin-6-yl}ethan-1-one]	–
–	–	1000 to 30000 nM	1000 to 30000 nM	COc1cnc(-c2nc3c(nc2N2CCC(Oc4ccc(F)cc4F)CC2)CCN(C(C)=O)C3)nc1 [Compound 191, 1-{2-[4-(2,4-difluorophenoxy)piperidin-1-yl]-3-(5-methoxypyrimidin-2-yl)-5H,6H,7H,8H-pyrido[3,4-b]pyrazin-6-yl}ethan-1-one]	–
< 100 nM	1000 to 30000 nM	–	–	CC(=O)N1CCc2nc(N3CCN(Cc4cc(Cl)ccc4Cl)CC3)c(-c3cnn(C)c3)nc2C1 [Compound 281, 1-(2-{4-[(2,5-dichlorophenyl)methyl]piperazin-1-yl}-3-(1-methyl-1H-pyrazol-4-yl)-5H,6H,7H,8H-pyrido[3,4-b]pyrazin-6-yl)ethan-1-one]	–
–	–	–	–	CCn1cc(-c2nc3cc(C(O)C(C)(C)O)ncc3nc2N2CCC(Oc3ccc(F)cc3F)CC2)cn1 (single isomer, unassigned) [Compound 588]	IC50 (GPR6; [3]): < 100 nM; IC50 (GPR3; [4]): 100 to 1000 nM
–	–	–	–	CC(=O)N1CCc2nc(N3CCC(Oc4ccc(F)cc4F)CC3)c(-c3cnn(C(F)F)c3)nc2C1 [Compound 15, 1-{3-[1-(difluoromethyl)-1H-pyrazol-4-yl]-2-[4-(2,4-difluorophenoxy)piperidin-1-yl]-5H,6H,7H,8H-pyrido[3,4-b]pyrazin-6-yl}ethan-1-one]	IC50 (GPR6; [5]): 100 to 1000 nM; IC50 (GPR3; [5]): 1000 to 30000 nM
100 to 1000 nM	1000 to 30000 nM	–	–	CC(C)(O)C(O)c1cc2nc(-c3cnn(CF)c3)c(N3CCN(Cc4cc(F)ccc4F)CC3)nc2cn1 (single isomer, unassigned) [Compound 723]	–

IC50 (GPR6; procedure of Example 24)	IC50 (GPR3; procedure of Example 24)	IC50 (GPR6; [1])	IC50 (GPR3; [2])	Structure (SMILES)	other results
–	–	–	–	CC(C)(O)[C@H](O)c1cc2nc(N3CCC(Oc4ccc(F)cc4F)CC3)c(-c3cnn(C4CC4)c3)nc2cn1 (single isomer, unassigned) [Compound 572]	IC50 (GPR6; [3]): 100 to 1000 nM; IC50 (GPR3; [4]): 1000 to 30000 nM
1000 to 30000 nM	1000 to 30000 nM	–	–	CC(=O)N1CCc2nc(N3CCN(Cc4ccc(OC(F)(F)F)cc4)CC3)c(-c3cnn(C)c3)nc2C1 [Compound 359, 1-[3-(1-methyl-1H-pyrazol-4-yl)-2-(4-{[4-(trifluoromethoxy)phenyl]methyl}piperazin-1-yl)-5H,6H,7H,8H-pyrido [3,4-b]pyrazin-6-yl]ethan-1-one]	–
–	–	1000 to 30000 nM	1000 to 30000 nM	N#CCN1CCc2nc(N3CCC(Oc4ccc(F)cc4F)CC3)c(-c3cnn(C4CCCCO4)c3)nc2C1 (centres unmarked) [Compound 118, 2-{2-[4-(2,4-difluorophenoxy)piperidin-1-yl]-3-[1-(oxan-2-yl)-1H-pyrazol-4-yl]-5H,6H,7H,8H-pyrido[3,4-b]pyrazin-6-yl}acetonitrile]	–
–	–	1000 to 30000 nM	1000 to 30000 nM	COc1cccc(OC2CCN(c3nc4c(nc3-c3cnn(C)c3)CN(C(C)=O)CC4)CC2)c1F [Compound 427, 1-{2-[4-(2-fluoro-3-methoxyphenoxy)piperidin-1-yl]-3-(1-methyl-1H-pyrazol-4-yl)-5H,6H,7H,8H-pyrido[3,4-b]pyrazin-6-yl}ethan-1-one]	–
–	–	1000 to 30000 nM	1000 to 30000 nM	CC(=O)N1CCc2nc(N3CCC(Oc4c(F)cccc4F)CC3)c(-c3cnn(C)c3)nc2C1 [Compound 454, 1-{2-[4-(2,6-difluorophenoxy)piperidin-1-yl]-3-(1-methyl-1H-pyrazol-4-yl)-5H,6H,7H,8H-pyrido[3,4-b]pyrazin-6-yl}ethan-1-one]	–
1000 to 30000 nM	1000 to 30000 nM	–	–	CC(=O)N1CCc2nc(N3CCN(Cc4cccc(F)c4F)CC3)c(-c3cnn(C)c3)nc2C1 [Compound 320, 1-(2-{4-[(2,3-difluorophenyl)methyl]piperazin-1-yl}-3-(1-methyl-1H-pyrazol-4-yl)-5H,6H,7H,8H-pyrido[3,4-b]pyrazin-6-yl)ethan-1-one]	–
1000 to 30000 nM	1000 to 30000 nM	–	–	CC(=O)N1CCc2nc(N3CCN(Cc4ccc(F)cc4C)CC3)c(-c3cnn(C)c3)nc2C1 [Compound 347, 1-(2-{4-[(4-fluoro-2-methylphenyl)methyl]piperazin-1-yl}-3-(1-methyl-1H-pyrazol-4-yl)-5H,6H,7H,8H-pyrido[3,4-b]pyrazin-6-yl)ethan-1-one]	–
–	–	1000 to 30000 nM	1000 to 30000 nM	CNC(=O)c1cc2nc(N3CCC(Oc4ccc(F)cc4F)CC3)c(-c3cncc(OC)n3)nc2cn1 [Compound 222, 2-[4-(2,4-difluorophenoxy)piperidin-1-yl]-3-(6-methoxypyrazin-2-yl)-N-methylpyrido[3,4-b]pyrazine-7-carboxamide]	–
< 100 nM	100 to 1000 nM	–	–	CC(C)(O)[C@H](O)c1cc2nc(N3CCC(Cc4ccc(F)cc4F)CC3)c(-c3cnn(CF)c3)nc2cn1 (single isomer, unassigned) [Compound 728]	–
–	–	1000 to 30000 nM	1000 to 30000 nM	CC(=O)N1CCc2nc(N3CCC(Oc4ccc(F)cc4F)CC3)c(-c3cn[nH]c3C3CC3)nc2C1 [Compound 62, 1-[3-(5-cyclopropyl-1H-pyrazol-4-yl)-2-[4-(2,4-difluorophenoxy)piperidin-1-yl]-5H,6H,7H,8H-pyrido[3,4-b]pyrazin-6-yl]ethan-1-one]	–
100 to 1000 nM	1000 to 30000 nM	–	–	CC(C)(O)C(C)(O)c1cc2nc(-c3cnn(C4CC4)c3)c(N3CCC(Oc4ccc(F)cc4F)CC3)nc2cn1 (single isomer, unassigned) [Compound 721]	–
–	–	1000 to 30000 nM	1000 to 30000 nM	Cn1cc(-c2nc3cnc(N)cc3nc2N2CCC(Oc3cc(Cl)ccc3Cl)CC2)cn1 [Compound 443, 2-[4-(2,5-dichlorophenoxy)piperidin-1-yl]-3-(1-methyl-1H-pyrazol-4-yl)pyrido[3,4-b]pyrazin-7-amine]	–
–	–	–	–	CC(C)(O)C(O)c1cc2nc(-c3cnn(C(F)F)c3)c(N3CCN(Cc4ccc(F)cc4F)CC3)nc2cn1 (single isomer, unassigned) [Compound 585]	IC50 (GPR6; [3]): < 100 nM; IC50 (GPR3; [4]): 100 to 1000 nM
100 to 1000 nM	1000 to 30000 nM	–	–	CC(C)(O)[C@H](O)c1cc2nc(-c3cnn(C4CC4)c3)c(N3CCN(Cc4ccccc4F)CC3)nc2cn1 (single isomer, unassigned) [Compound 781]	–
1000 to 30000 nM	1000 to 30000 nM	–	–	N#Cc1cc2nc(-c3cnn(CF)c3)c(N3CCN(Cc4ccc(F)cc4F)CC3)nc2cn1 [Compound 793, 3-{4-[(2,4-difluorophenyl)methyl]-1-piperazinyl}-2-[1-(fluoromethyl)-4-pyrazolyl]-1,4,6-triaza-7-naphthonitrile]	–
